Laboratory results from ChEMBL document CHEMBL5131472, “Synthesis and antiviral activity of formycin derivatives with anti-influenza virus activity” (Bioorg Med Chem, 2022).

Assays:
[1] = Cytotoxicity against dog MDCK cells assessed as reduction in cell viability incubated for 48 hrs by CellTiter96 Aqueous one solution assay; type: toxicity, cell-based, Canis lupus familiaris
Influenza A virus = experiment: Antiviral activity against Influenza A virus A/WSN/33(H1N1) infected in dog MDCK cells assessed as reduction in viral titer in supernatants incubated for 24 hrs by plaque assay; type: functional, organism-based

SMILES | CC50 at 48 h [1] | IC50 (Influenza A virus)
OC[C@H]1O[C@@H](c2n[nH]c3c(N4CCCCC4)ncnc23)[C@H](O)[C@@H]1O | 289 µM | –
CSc1ncnc2c([C@H]3C=C[C@@H](CO)O3)n[nH]c12 | 190 µM | –
OC[C@H]1O[C@@H](c2n[nH]c3c([SeH])ncnc23)[C@H](O)[C@@H]1O | 5.6 µM | 0.035 µM
OC[C@H]1O[C@@H](c2n[nH]c3c(SC(F)(F)F)ncnc23)[C@H](O)[C@@H]1O | 3.6 µM | 0.397 µM
CSc1ncnc2c([C@@H]3O[C@H](CO)[C@@H](O)[C@H]3O)n[nH]c12 | 9.3 µM | 0.01 µM
CSc1ncnc2c([C@@H]3O[C@H](CO)[C@@H](O)[C@]3(C)O)n[nH]c12 | > 1000 µM | 0.306 µM
CN(C)c1ncnc2c([C@@H]3O[C@H](CO)[C@@H](O)[C@H]3O)n[nH]c12 | 70 µM | 2.84 µM
OC[C@H]1O[C@@H](c2n[nH]c3c(NCCl)ncnc23)[C@H](O)[C@@H]1O | 19 µM | 0.282 µM
CCCCNc1ncnc2c([C@@H]3O[C@H](CO)[C@@H](O)[C@H]3O)n[nH]c12 | > 1000 µM | 0.68 µM
CC(C)Sc1ncnc2c([C@@H]3O[C@H](CO)[C@@H](O)[C@H]3O)n[nH]c12 | 503 µM | –
OC[C@H]1O[C@@H](c2n[nH]c3c(-n4nccn4)ncnc23)[C@H](O)[C@@H]1O | < 0.1 µM | 0.103 µM
CSc1ncnc2c([C@@H]3O[C@H](CO)[C@@H](O)[C@@H]3O)n[nH]c12 | > 1000 µM | > 3 µM
OC[C@H]1O[C@@H](c2n[nH]c3c(-c4cnn[nH]4)ncnc23)[C@H](O)[C@@H]1O | > 1000 µM | –
CSc1ncnc2c([C@@H](CO)OC(CO)CO)n[nH]c12 | > 1000 µM | –
OC[C@H]1O[C@@H](c2n[nH]c3c(S)ncnc23)[C@H](O)[C@@H]1O | 403 µM | 0.571 µM
CCNc1ncnc2c([C@@H]3O[C@H](CO)[C@@H](O)[C@H]3O)n[nH]c12 | 5.7 µM | 0.313 µM
CCc1ncnc2c([C@@H]3O[C@H](CO)[C@@H](O)[C@H]3O)n[nH]c12 | > 1000 µM | –
OC[C@H]1O[C@@H](c2n[nH]c3c(N4CCCC4)ncnc23)[C@H](O)[C@@H]1O | 211 µM | –
CSc1ncnc2c([C@@H]3O[C@H](CO)[C@@H](O)[C@@]3(C)O)n[nH]c12 | > 1000 µM | 2.59 µM
CCSc1ncnc2c([C@@H]3O[C@H](CO)[C@@H](O)[C@H]3O)n[nH]c12 | > 1000 µM | 0.201 µM
C[Se]c1ncnc2c([C@@H]3O[C@H](CO)[C@@H](O)[C@H]3O)n[nH]c12 | < 0.1 µM | 0.024 µM
Nc1ncnc2c([C@@H]3O[C@H](CO)[C@@H](O)[C@H]3O)[nH]nc12 [FORMYCIN] | 2.6 µM | 0.029 µM
CSc1nc(SC)c2[nH]nc([C@@H]3O[C@H](CO)[C@@H](O)[C@H]3O)c2n1 | > 1000 µM | > 1 µM

SMILES | CC50 at 48 h [1] | IC50 (Influenza A virus)
CC(C)Nc1ncnc2c([C@@H]3O[C@H](CO)[C@@H](O)[C@H]3O)n[nH]c12 | > 1000 µM | –
CN[C@H]1[C@H](O)[C@@H](CO)O[C@H]1c1n[nH]c2c(SC)ncnc12 | 49 µM | –
OC[C@H]1O[C@@H](c2nn3c4c(ncnc24)SCC3)[C@H](O)[C@@H]1O | 249 µM | –
CSc1ncnc2c([C@@H]3O[C@H](CO)[C@@H](O)[C@H]3O)n(C)nc12 | > 1000 µM | –
OC[C@H]1O[C@@H](c2n[nH]c3c(-n4cncn4)ncnc23)[C@H](O)[C@@H]1O | 7.9 µM | 0.251 µM
CSc1ncnc2c([C@@H]3O[C@H](CO)C[C@H]3O)n[nH]c12 | > 1000 µM | –
NC(=O)CSc1ncnc2c([C@@H]3O[C@H](CO)[C@@H](O)[C@H]3O)n[nH]c12 | 307 µM | –
CSc1ncnc2c([C@@H]3O[C@H](CO)[C@H](O)[C@H]3O)n[nH]c12 | > 1000 µM | –
CNc1ncnc2c([C@@H]3O[C@H](CO)[C@@H](O)[C@H]3O)n[nH]c12 | 1.5 µM | 0.015 µM
COc1ncnc2c([C@@H]3O[C@H](CO)[C@@H](O)[C@H]3O)n[nH]c12 | 1.2 µM | 0.088 µM
OC[C@H]1O[C@@H](c2n[nH]c3c(SCC(F)(F)F)ncnc23)[C@H](O)[C@@H]1O | 64 µM | 1.09 µM
CSCc1ncnc2c([C@@H]3O[C@H](CO)[C@@H](O)[C@H]3O)n[nH]c12 | > 1000 µM | –
CSc1nc(O)nc2c([C@@H]3O[C@H](CO)[C@@H](O)[C@H]3O)n[nH]c12 | > 1000 µM | > 1 µM
O=c1[nH]cnc2c([C@@H]3O[C@H](CO)[C@@H](O)[C@H]3O)n[nH]c12 [FORMYCIN B] | 68 µM | 3.63 µM
CSc1ncnc2c([C@H]3C[C@H](O)[C@@H](CO)O3)n[nH]c12 | > 1000 µM | > 3 µM
CSc1ncnc2c([C@@H]3O[C@H](CO)[C@@H](O)[C@H]3O)nn(C)c12 | 205 µM | 0.344 µM
C=CCSc1ncnc2c([C@@H]3O[C@H](CO)[C@@H](O)[C@H]3O)n[nH]c12 | 412 µM | 0.22 µM
CCCCSc1ncnc2c([C@@H]3O[C@H](CO)[C@@H](O)[C@H]3O)n[nH]c12 | 238 µM | –
CSc1nc(Cl)nc2c([C@@H]3O[C@H](CO)[C@@H](O)[C@H]3O)n[nH]c12 | > 1000 µM | > 1 µM
OC[C@H]1O[C@@H](c2n[nH]c3c(-n4ccnn4)ncnc23)[C@H](O)[C@@H]1O | 287 µM | 0.343 µM
OC[C@H]1O[C@@H](c2n[nH]c3c(N4CCOCC4)ncnc23)[C@H](O)[C@@H]1O | > 1000 µM | –
OC[C@H]1O[C@@H](c2n[nH]c3c(NC4CC4)ncnc23)[C@H](O)[C@@H]1O | 431 µM | –
